What was measured:
human orexin-2 receptor = target: T1, human orexin-2 receptor (Homo sapiens, UniProt O43614); experiment: Intracellular calcium measurements (FLIPR), orexin receptor antagonistic activity, OX2; type: cell-based; details: CHO cells expressing human orexin-2 receptor, 3 nM orexin-A
T1 construct: expressed in transfected cells; host or cells: CHO cells (G418 selection)
T1 sequence (O43614 1-444): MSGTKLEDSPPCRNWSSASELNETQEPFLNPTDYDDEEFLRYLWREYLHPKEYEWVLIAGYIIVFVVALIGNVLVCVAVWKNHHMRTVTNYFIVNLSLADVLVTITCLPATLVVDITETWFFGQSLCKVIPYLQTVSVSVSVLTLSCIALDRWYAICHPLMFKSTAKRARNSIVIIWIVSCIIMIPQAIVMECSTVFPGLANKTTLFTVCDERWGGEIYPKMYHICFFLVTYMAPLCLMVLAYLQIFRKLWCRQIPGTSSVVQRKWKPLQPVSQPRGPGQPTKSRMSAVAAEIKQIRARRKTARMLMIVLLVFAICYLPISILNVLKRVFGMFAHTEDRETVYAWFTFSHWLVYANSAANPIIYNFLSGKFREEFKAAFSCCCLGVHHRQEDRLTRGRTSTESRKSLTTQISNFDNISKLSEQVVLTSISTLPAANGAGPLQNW
Experimental: (§1) The orexin receptor antagonistic activity of the compounds of formula (I) is determined in accordance with the following experimental method.
(§2) Intracellular Calcium Measurements:
(§3) Chinese hamster ovary (CHO) cells expressing the human orexin-1 receptor and the human orexin-2 receptor, respectively, are grown in culture medium (Ham F-12 with L-Glutamine) containing 300 μg/ml G418, 100 U/ml penicillin, 100 μg/ml streptomycin and 10% heat inactivated fetal calf serum (FCS). The cells are seeded at 20,000 cells/well into 384-well black clear bottom sterile plates (Greiner). The seeded plates are incubated overnight at 37° C. in 5% CO2.
(§4) Human orexin-A as an agonist is prepared as 1 mM stock solution in MeOH:water (1:1), diluted in HBSS containing 0.1% bovine serum albumin (BSA), NaHCO3: 0.375 g/l and 20 mM HEPES for use in the assay at a final concentration of 3 nM.
(§5) Antagonists are prepared as 10 mM stock solution in DMSO, then diluted in 384-well plates using DMSO followed by a transfer of the dilutions into in HBSS containing 0.1% bovine serum albumin (BSA), NaHCO3: 0.375 g/l and 20 mM HEPES. On the day of the assay, 50 μl of staining buffer (HBSS containing 1% FCS, 20 mM HEPES, NaHCO3: 0.375 g/l, 5 mM probenecid (Sigma) and 3 μM of the fluorescent calcium indicator fluo-4 AM (1 mM stock solution in DMSO, containing 10% pluronic) is added to each well. The 384-well cell-plates are incubated for 50 min at 37° C. in 5% CO2 followed by equilibration at rt for 30-120 min before measurement.
(§6) Within the Fluorescent Imaging Plate Reader (FLIPR2 or FLIPR Tetra, Molecular Devices), antagonists are added to the plate in a volume of […], incubated for 10 min and finally 10 μl/well of agonist is added. Fluorescence is measured for each well at 1 second intervals, and the height of each fluorescence peak is compared to the height of the fluorescence peak induced by 3 nM orexin-A with vehicle in place of antagonist. For each antagonist, the IC50 value (the concentration of compound needed to inhibit 50% of the agonistic response) is determined. With the FLIPR Tetra, non-optimized and optimized conditions were used. Optimized conditions were achieved by adjustment of pipetting speed and cell splitting regime. The calculated IC50 values of the compounds may fluctuate depending on the daily cellular assay performance. Fluctuations of this kind are known to those skilled in the art.

human orexin-1 receptor = target: T2, human orexin-1 receptor (Homo sapiens, UniProt O43613); experiment: Intracellular calcium measurements (FLIPR), orexin receptor antagonistic activity, OX1; type: cell-based; details: CHO cells expressing human orexin-1 receptor, 3 nM orexin-A
T2 construct: expressed in transfected cells; host or cells: CHO cells (G418 selection)
T2 sequence (O43613 1-425): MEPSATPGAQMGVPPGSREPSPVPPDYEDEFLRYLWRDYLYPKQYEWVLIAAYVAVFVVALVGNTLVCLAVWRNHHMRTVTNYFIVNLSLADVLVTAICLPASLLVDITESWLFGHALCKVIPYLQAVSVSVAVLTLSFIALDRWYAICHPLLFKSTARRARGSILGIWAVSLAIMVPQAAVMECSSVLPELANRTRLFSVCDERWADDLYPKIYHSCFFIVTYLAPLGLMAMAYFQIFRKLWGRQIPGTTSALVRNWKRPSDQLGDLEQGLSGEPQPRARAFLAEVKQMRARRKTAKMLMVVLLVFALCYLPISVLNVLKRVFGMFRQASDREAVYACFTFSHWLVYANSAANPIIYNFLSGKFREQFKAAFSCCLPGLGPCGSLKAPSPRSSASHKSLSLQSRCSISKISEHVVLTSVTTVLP
Experimental: as §1, §2, §3, §4, §5, §6

[1] = FLIPR Tetra, non-optimized conditions
[2] = FLIPR Tetra, optimized conditions

SMILES | IC50 (human orexin-2 receptor; FLIPR2) | IC50 (human orexin-1 receptor; FLIPR2) | IC50 (human orexin-2 receptor; [1]) | IC50 (human orexin-1 receptor; [1]) | also measured
Cc1cccc(-c2sc(C)nc2C(=O)N2C[C@@H]3CC(C)C[C@@H]3[C@H]2CNC(=O)c2noc3ccccc23)c1 (stereo partly drawn) [Example 7, Benzo[d]isoxazole-3-carboxylic acid-(1S,2S,5R)-[7-methyl-3-(2-methyl-5-m-tolyl-thiazole-4-carbonyl)-3-aza-bicyclo[3.3.0]oct-2-ylmethyl]-amide] | 13 nM | 12 nM | – | – | –
Cc1cccc(C(=O)NC[C@@H]2[C@H]3CC(C)C[C@H]3CN2C(=O)c2nc(C)sc2-c2cccc(C)c2)c1 (stereo partly drawn) [Example 19, (1S,2S,5R)-3-Methyl-N-[7-methyl-3-(2-methyl-5-m-tolyl-thiazole-4-carbonyl)-3-aza-bicyclo[3.3.0]oct-2-ylmethyl]-benzamide] | 47 nM | 77 nM | – | – | –
Cc1cccc(-c2sc(C)nc2C(=O)N2C[C@@H]3CC(C)C[C@@H]3[C@H]2CNC(=O)c2cc(Cl)ccn2)c1 (stereo partly drawn) [Example 25, 4-Chloro-pyridine-2-carboxylic acid-(1S,2S,5R)-[7-methyl-3-(2-methyl-5-m-tolyl-thiazole-4-carbonyl)-3-aza-bicyclo[3.3.0]oct-2-ylmethyl]-amide] | 48 nM | 24 nM | – | – | –
COc1cccc(-c2sc(C)nc2C(=O)N2C[C@@H]3CCC[C@@H]3[C@H]2CNC(=O)c2c(C)nc3sccn23)c1 [Example 33, 6-Methyl-imidazo[2,1-b]thiazole-5-carboxylic acid-(1S,2S,5R)-{3-[5-(3-methoxy-phenyl)-2-methyl-thiazole-4-carbonyl]-3-aza-bicyclo[3.3.0]oct-2-ylmethyl}-amide] | – | – | 17 nM | 8 nM | –
Cc1nc(C(=O)N2C[C@@H]3CC(C)C[C@@H]3[C@H]2CNC(=O)c2c(C)nc3sccn23)c(-c2cccc(C(F)(F)F)c2)s1 (stereo partly drawn) [Example 36, 6-Methyl-imidazo[2,1-b]thiazole-5-carboxylic acid-(1S,2S,5R)-{7-methyl-3-[2-methyl-5-(3-trifluoromethyl-phenyl)-thiazole-4-carbonyl]-3-aza-bicyclo[3.3.0]oct-2-ylmethyl}-amide] | – | – | 262 nM | 44 nM | –
Cc1nc(C(=O)N2C[C@@H]3CC(C)C[C@@H]3[C@H]2CNC(=O)c2c(C)nc3sccn23)c(-c2ccc(F)c(F)c2)s1 (stereo partly drawn) [Example 51, 6-Methyl-imidazo[2,1-b]thiazole-5-carboxylic acid-(1S,2S,5R)-{3-[5-(3,4-difluoro-phenyl)-2-methyl-thiazole-4-carbonyl]-7-methyl-3-aza-bicyclo[3.3.0]oct-2-ylmethyl}-amide] | – | – | 94 nM | 33 nM | –
Cc1nc2sccn2c1C(=O)NC[C@@H]1[C@H]2CCC[C@H]2CN1C(=O)c1ccccc1-c1ccccc1 [Example 60, 6-Methyl-imidazo[2,1-b]thiazole-5-carboxylic acid-(1S,2S,5R)-[3-(biphenyl-2-carbonyl)-3-aza-bicyclo[3.3.0]oct-2-ylmethyl]-amide] | – | – | 21 nM | 16 nM | –
Cc1cccc(-c2sc(C)nc2C(=O)N2C[C@@H]3CC(F)(F)C[C@@H]3[C@H]2CNC(=O)c2cccc3c2CCO3)c1 [Example 79, 2,3-Dihydro-benzofuran-4-carboxylic acid-(1S,2S,5R)-[7,7-difluoro-3-(2-methyl-5-m-tolyl-thiazole-4-carbonyl)-3-aza-bicyclo[3.3.0]oct-2-ylmethyl]-amide] | – | – | – | – | IC50 (human orexin-2 receptor; [2]): 20 nM; IC50 (human orexin-1 receptor; [2]): 8 nM
Cc1cccc(-c2sc(C)nc2C(=O)N2C[C@@H]3CC(F)(F)C[C@@H]3[C@H]2CNC(=O)c2cccc3ncsc23)c1 [Example 81, Benzothiazole-7-carboxylic acid-(1S,2S,5R)-[7,7-difluoro-3-(2-methyl-5-m-tolyl-thiazole-4-carbonyl)-3-aza-bicyclo[3.3.0]oct-2-ylmethyl]-amide] | – | – | – | – | IC50 (human orexin-2 receptor; [2]): 10 nM; IC50 (human orexin-1 receptor; [2]): 6 nM
Cc1cccc(-c2sc(C)nc2C(=O)N2C[C@@H]3CC(F)(F)C[C@@H]3[C@H]2CNC(=O)c2c(C)nc3sccn23)c1 [Example 85, 6-Methyl-imidazo[2,1-b]-thiazole-5-carboxylic acid-(1S,2S,5R)-[7,7-difluoro-3-(2-methyl-5-m-tolyl-thiazole-4-carbonyl)-3-aza-bicyclo[3.3.0]oct-2-ylmethyl]-amide] | – | – | – | – | IC50 (human orexin-2 receptor; [2]): 18 nM; IC50 (human orexin-1 receptor; [2]): 7 nM

More lines, main results first:

IC50 (human orexin-2 receptor; FLIPR2) | IC50 (human orexin-1 receptor; FLIPR2) | IC50 (human orexin-2 receptor; [1]) | IC50 (human orexin-1 receptor; [1]) | SMILES | also measured
114 nM | 59 nM | – | – | Cc1cccc(-c2sc(C)nc2C(=O)N2C[C@@H]3CC(C)C[C@@H]3[C@H]2CNC(=O)c2c(C)noc2C)c1 (stereo partly drawn) [Example 6, 3,5-Dimethyl-isoxazole-4-carboxylic acid-(1S,2S,5R)-[7-methyl-3-(2-methyl-5-m-tolyl-thiazole-4-carbonyl)-3-aza-bicyclo[3.3.0]-2-ylmethyl]-amide] | –
9 nM | 7 nM | – | – | Cc1cccc(-c2sc(C)nc2C(=O)N2C[C@@H]3CC(C)C[C@@H]3[C@H]2CNC(=O)c2cnc3sccn23)c1 (stereo partly drawn) [Example 11, Imidazo[2,1-b]thiazole-5-carboxylic acid-(1S,2S,5R)-[7-methyl-3-(2-methyl-5-m-tolyl-thiazole-4-carbonyl)-3-aza-bicyclo[3.3.0]oct-2-ylmethyl]-amide] | –
– | – | 20 nM | 17 nM | Cc1nc2sccn2c1C(=O)NC[C@@H]1[C@H]2CCC[C@H]2CN1C(=O)c1nc(N)sc1-c1cccc(F)c1 [Example 70, 6-Methyl-imidazo[2,1-b]thiazole-5-carboxylic acid-(1S,2S,5R)-{3-[2-amino-5-(3-fluoro-phenyl)-thiazole-4-carbonyl]-3-aza-bicyclo[3.3.0]oct-2-ylmethyl}-amide] | –
